Measurements: patent US8889377B2, “GPCR comprising an IC2 insertion” (ConfometRx, Inc., priority 2010, dated 2014)

System: mGluR5 and Rock10 (mGluR5-T4 lysozyme fusion protein of FIG. 3)
Assay: 3H-MPEP ligand binding in membranes of transfected HEK293 cells
Design: species or system human
Details: HEK293 cell membranes; ^3H-MPEP radioligand; wild-type mGluR5 vs fusion protein Rock10 (FIG. 6)
Protocol: HEK293 cells were cultured on plastic dishes at 37° C. with 5% CO2 in Dulbecco's modified Eagle's medium (Cellgro) with 5% fetal bovine serum. For an individual expression experiment, cells at confluency were split, and approximately 100,000 cells were used to seed glass cover slips in the same medium. After 2 d, cells are transfected with the addition of 1 μg of a given pCDNA3-receptor plasmid and 3 μl of Fugene 6 reagent (Roche). 48 h after transfection, cells were harvested and membranes prepared for ligand binding analysis. ^3H-MPEP (a negative allosteric modulator that binds to the transmembrane domains of mGluR5) was used to detect functional mGluR5 in HEK293 cell membranes (see FIG. 6).

Cc1cccc(C#Cc2ccccc2)n1 [MPEP]
affinity of MPEP for mGluR5 compared with Rock10: same affinity for mGluR5 as Rock10
